Reference: US9840478B2 (MERCK SHARP & DOHME CORP., priority 2013, dated 2017)
Like-named read-outs stand apart in the source and are kept apart here.

Test system: HIV-1 (H9IIIB strain)
Test: Cell-based HIV infection assay using a reporter (Cell-Based), MT4-GFP cells
Conditions: 50% normal human serum, mean of at least two independent experiments, read-out: Cell-based IP
Description: Cell-Based HIV Infection Assay Using a Reporter (“Cell-Based”):
MT4-GFP cells contain a stably integrated HIV long terminal repeat promoter directing the transcription of green fluorescent protein (GFP). When HIV infects the cell, GFP is produced and the cell becomes green. MT4-GFP cells (250,000 cells/ml) were bulk-infected with HIV-1 (H9IIIB strain) at low multiplicity of infection (MOI) in RPMI media, supplemented with 10% FBS for 24 hours. Cells were then washed once in RPMI plus 10% FBS and resuspended in RPMI plus 50% normal human serum (NHS). Test compounds were serial-diluted in DMSO using an ECHO liquid dispenser. A control well included a combination of three HIV drugs (an inhibitor of HIV protease, integrase strand transfer and a non-nucleoside reverse transcriptase inhibitor; triple drug). The infected MT4-GFP cells were added to a 384-well poly-D-lysine coated black plate with clear bottom in which the diluted test compounds were placed. The cells were seeded in the plate at 8,000 cells per well and the final DMSO concentration was 0.4%. Infected cells were quantified at both 24 and 48 hours post incubation using an Acumen eX3 plate reader. Viral reproductive ratio (R0) was determined using the number of infected cells at 48 hours divided by the number of infected cells at 24 hours. Percent viral growth inhibition was calculated by [1−(R−Rtripledrug)/(RDMSO−Rtripledrug)]*100. Compound potency IP or IC50 was determined with use of a 4-parameter dose response curve analysis.

[1] = Human immunodeficiency virus 1, MT4-GFP cells infected with HIV-1 H9IIIB

Row | SMILES | IC50 [1] [nM] | IC50 (MT4-GFP cells infected with HIV-1 H9IIIB) [nM]
1 | COC(=O)N[C@H](C(=O)Nc1cccc(F)c1CC[C@H]1CNCCN1S(=O)(=O)c1ccccc1)C(c1cc(F)cc(F)c1)c1cc(F)cc(F)c1 [Example 51, β-(3,5-difluorophenyl)-3,5-difluoro-N-(3-fluoro-2-{2-[(2S)-1-(phenylsulfonyl)piperazin-2yl]ethyl}phenyl)-Nα-(methoxycarbonyl)-L-phenylalaninamide] | 11 | –
2 | COC(=O)N[C@H](C(=O)Nc1cccc(F)c1CC[C@H]1CNCCN1S(=O)(=O)c1ccccc1)[C@@H](c1ccc(Cl)cc1)c1cccc(F)c1 [Example 52, (βS)-4-chloro-β-(3-fluorophenyl)-N-(3-fluoro-2-{2-[(2S)-1-(phenylsulfonyl)piperazin-2-yl]ethyl}phenyl)-Nα-(methoxycarbonyl)-L-phenylalaninamide] | 9.2 | –
3 | COC(=O)N[C@H](C(=O)Nc1cncc(F)c1CC[C@H]1CNCCN1S(=O)(=O)c1ccccc1)[C@@H](c1ccc(Cl)cc1)c1cccc(F)c1 [Example 53, (βS)-4-chloro-β-(3-fluorophenyl)-N-(5-fluoro-4-{2-[(2S)-1-(phenylsulfonyl)piperazin-2-yl]ethyl}pyridin-3-yl)-Nα-(methoxycarbonyl)-L-phenylalaninamide] | 6.5 | –
4 | COC(=O)N[C@H](C(=O)Nc1cncc(F)c1CC[C@H]1CNCCN1S(=O)(=O)c1ccccc1)C(c1cccc(F)c1)c1cccc(F)c1 [Example 54, 3-fluoro-β-(3-fluorophenyl)-N-(5-fluoro-4-{2-[(2S)-1-(phenylsulfonyl)piperazin-2-yl]ethyl}pyridin-3-yl)-Nα-(methoxycarbonyl)-L-phenylalaninamide] | 9.8 | –
5 | COC(=O)N[C@H](C(=O)Nc1cccc(F)c1CC[C@H]1CNCCN1S(=O)(=O)c1ccccc1)[C@@H](c1ccc(Cl)cc1)c1cncc(F)c1 [Example 55, (βS)-4-chloro-N-(3-fluoro-2-{2-[(2S)-1-(phenylsulfonyl)piperazin-2-yl]ethyl}phenyl)-β-(5-fluoropyridin-3-yl)-Nα-(methoxycarbonyl)-L-phenylalaninamide] | 9 | –
6 | COC(=O)N[C@H](C(=O)Nc1cncc(F)c1CC[C@H]1CNCCN1S(=O)(=O)c1ccccc1)[C@@H](c1ccc(Cl)cc1)c1cccc(OC(F)(F)F)c1 [Example 56, (βS)-4-chloro-N-(5-fluoro-4-{2-[(2S)-1-(phenylsulfonyl)piperazin-2-yl]ethyl}pyridin-3-yl)-Nα-(methoxycarbonyl)-β-[3-(trifluoromethoxy)phenyl]-L-phenylalaninamide] | 13 | –
7 | COC(=O)N[C@H](C(=O)Nc1cncc(F)c1CC[C@H]1CNCCN1S(=O)(=O)c1ccccc1)[C@@H](c1ccc(Cl)cc1)c1cc(F)cc(F)c1 [Example 57, (βS)-4-chloro-β-(3,5-difluorophenyl)-N-(5-fluoro-4-{2-[(2S)-1-(phenylsulfonyl)piperazin-2-yl]ethyl}pyridin-3-yl)-Nα-(methoxycarbonyl)-L-phenylalaninamide] | 7.7 | –
8 | COC(=O)N[C@H](C(=O)Nc1cccc(F)c1CC[C@H]1CNCCN1S(=O)(=O)c1ccccc1)[C@@H](c1ccc(Cl)cc1)c1cccc(OC(F)(F)F)c1 [Example 58, (βS)-4-chloro-N-(3-fluoro-2-{2-[(2S)-1-(phenylsulfonyl)piperazin-2-yl]ethyl}phenyl)-Nα-(methoxycarbonyl)-β-[3-(trifluoromethoxy)phenyl]-L-phenylalaninamide] | 42 | –
9 | COC(=O)N[C@H](C(=O)Nc1cccc(F)c1CC[C@H]1CNCCN1S(=O)(=O)c1ccccc1)[C@@H](c1ccc(Cl)cc1)c1cc(F)cc(F)c1 [Example 59, (βS)-4-chloro-β-(3,5-difluorophenyl)-N-(3-fluoro-2-{2-[(2S)-1-(phenylsulfonyl)piperazin-2-yl]ethyl}phenyl)-Nα-(methoxycarbonyl)-L-phenylalaninamide] | 29 | –
10 | O=C(CC(c1ccc(F)cc1)c1ccc(F)cc1)Nc1cccc(F)c1CC[C@H]1CNCCN1S(=O)(=O)c1ccccc1 [Example 60, 3,3-bis(4-fluorophenyl)-N-(3-fluoro-2-{2-[(2S)-1-(phenylsulfonyl)piperazin-2-yl]ethyl}phenyl)propanamide] | 27 | –
11 | O=C(CC(c1ccc(F)cc1)c1ccc(F)cc1)Nc1cccc(F)c1CC[C@@H]1CNCCN1S(=O)(=O)c1ccccc1 [Example 61, 3,3-bis(4-fluorophenyl)-N-(3-fluoro-2-{2-[(2R)-1-(phenylsulfonyl)piperazin-2-yl]ethyl}phenyl)propanamide] | 1200 | –
12 | O=C(CC1(c2ccc(Cl)cc2)CCOCC1)Nc1cncc(F)c1CC[C@H]1CNCCN1S(=O)(=O)C1CC1 [Example 62, 2-[4-(4-chlorophenyl)tetrahydro-2H-pyran-4-yl]-N-(4-{2-[(2S)-1-(cyclopropylsulfonyl)piperazin-2-yl]ethyl}-5-fluoropyridin-3-yl)acetamide] | 520 | –
13 | CS(=O)(=O)N1CCNC[C@@H]1CCc1c(F)cccc1NC(=O)[C@@H](N)[C@@H](c1ccc(Cl)cc1)C1CCOCC1 [Example 65, (βR)-4-chloro-N-(3-fluoro-2-{2-[(2S)-1-(methylsulfonyl)piperazin-2-yl]ethyl}phenyl)-β-(tetrahydro-2H-pyran-4-yl)-L-phenylalaninamide] | 120 | –
14 | COC(=O)N[C@H](C(=O)Nc1cccc(F)c1CC[C@H]1CNCCN1S(=O)(=O)c1ccccc1)[C@@H](c1ccc(Cl)cc1)c1cncc(C(F)(F)F)c1 [Example 66, (βS)-4-chloro-N-(3-fluoro-2-{2-[(2S)-1-(phenylsulfonyl)piperazin-2-yl]ethyl}phenyl)-Nα-(methoxycarbonyl)-β-[5-(trifluoromethyl)pyridin-3-yl]-L-phenylalaninamide] | 12 | –
15 | COc1ccc([C@H](c2ccc(Cl)cc2)[C@H](N)C(=O)Nc2cccc(F)c2CC[C@H]2CNCCN2S(=O)(=O)c2ccccc2)cn1 [Example 67, (βS)-4-chloro-N-(3-fluoro-2-{2-[(2S)-1-(phenylsulfonyl)piperazin-2-yl]ethyl}phenyl)-β-(6-methoxypridin-3-yl)-L-phenylalaninamide] | 5.8 | –
16 | CN(CC(F)(F)F)S(=O)(=O)N1CCNC[C@@H]1CCc1c(F)cccc1NC(=O)[C@@H](N)C(c1ccc(F)cc1)c1ccc(F)cc1 [Example 68, 4-fluoro-N-[3-fluoro-2-(2-{(2S)-1-[methyl(2,2,2-trifluoroethyl)sulfamoyl]piperazin-2-yl}ethyl)phenyl]-β-(4-fluorophenyl)-L-phenylalaninamide] | 1800 | –
17 | CN(CC1CC1)S(=O)(=O)N1CCNC[C@@H]1CCc1c(F)cccc1NC(=O)[C@@H](N)C(c1ccc(F)cc1)c1ccc(F)cc1 [Example 69] | – | 360
18 | N[C@H](C(=O)Nc1cncc(F)c1CC[C@H]1CNCCN1S(=O)(=O)c1ccccc1)C1(c2ccc(Cl)cc2)CCOCC1 [Example 70, (2S)-2-amino-2-[4-(4-chlorophenyl)tetrahydro-2H-pyran-4-yl]-N-(5-fluoro-4-{2-[(2S)-1-(phenylsulfonyl)piperazin-2-yl]ethyl}pyridin-3-yl)ethanamide] | 27 | –
19 | COC(=O)N[C@H](C(=O)Nc1cncc(F)c1CC[C@H]1CNCCN1S(=O)(=O)c1ccccc1)C1(c2ccc(Cl)cc2)CCOCC1 [Example 71, methyl {(1S)-1-[4-(4-chlorophenyl)tetrahydro-2H-pyran-4-yl]-2-[(5-fluoro-4-{2-[(2S)-1-(phenylsulfonyl)piperazin-2-yl]ethyl}pyridin-3-yl)amino]-2-oxoethyl} carbamate] | 11 | –
20 | N[C@H](C(=O)Nc1cccc(F)c1CC[C@H]1CNCCN1S(=O)(=O)c1ccccc1)[C@H](CCC1CCOCC1)c1ccc(Cl)c(F)c1 [Example 72, (βR)-4-chloro-3-fluoro-N-(3-fluoro-2-{2-[(2S)-1-(phenylsulfonyl)piperazin-2-yl]ethyl}phenyl)-β-[2-(tetrahydro-2H-pyran-4-yl)ethyl]-L-phenylalaninamide] | 21 | –
21 | COC(=O)N[C@H](C(=O)Nc1cccc(F)c1CC[C@H]1CNCCN1S(=O)(=O)c1ccccc1)[C@H](CCC1CCOCC1)c1ccc(Cl)c(F)c1 [Example 73, (βR)-4-chloro-3-fluoro-N-(3-fluoro-2-{2-[(2S)-1-(phenylsulfonyl)piperazin-2-yl]ethyl}phenyl)-Nα-(methoxycarbonyl)-β-[2-(tetrahydro-2H-pyran-4-yl)ethyl]-L-phenylalaninamide] | 7.6 | –
22 | CC1(C)CC([C@H](c2ccc(Cl)cc2)[C@H](N)C(=O)Nc2cccc(F)c2CC[C@H]2CNCCN2S(=O)(=O)c2ccccc2)CCO1 (stereo partly drawn) [Example 74, (βR)-4-chloro-β-(2,2-dimethyltetrahydro-2H-pyran-4-yl)-N-(3-fluoro-2-{2-[(2S)-1-(phenylsulfonyl)piperazin-2-yl]ethyl}phenyl)-L-phenylalaninamide] | 24 | –
23 | CC1(C)CC([C@H](c2ccc(Cl)cc2)[C@H](N)C(=O)Nc2cccc(F)c2CC[C@H]2CNCCN2S(=O)(=O)c2ccccc2)CC(C)(C)O1 [Example 75, (βR)-4-chloro-N-(3-fluoro-2-{2-[(2S)-1-(phenylsulfonyl)piperazin-2-yl]ethyl}phenyl)-β-(2,2,6,6-tetramethyltetrahydro-2H-pyran-4-yl)-L-phenylalaninamide] | 150 | –
